Assay results: patent US9376424B2, “Methods for treating post traumatic stress disorder” (AZEVAN PHARMACEUTICALS, INC., priority 2010, dated 2016)

How the values were obtained:
[1] = target: T1, human V1a receptor (Homo sapiens, UniProt P37288); assay: Inhibition of phosphatidylinositol turnover (V1a); type: cell-based
T1 construct: host or cells: CHO cells
Description: Inhibition of phosphatidylinositol turnover (V1a). The physiological effects of vasopressin are mediated through specific G-protein coupled receptors. The vasopressin V1a receptor is coupled to the Gq/G11 family of G proteins and mediates phosphatidylinositol turnover. The agonist or antagonist character of the compounds of the invention may be determined by their ability to inhibit vasopressin-mediated turnover of phosphatidylinositol by the procedure described in the following paragraphs.
Cell culture and labeling of cells. Three days prior to the assay, near-confluent cultures of hV1a or hV1b cells were dissociated and seeded in 6-well tissue culture plates, about 100 wells being seeded from each 75 cm^2 flask (equivalent to 12:1 split ratio). Each well contained 1 mL of growth medium with 2 μCi of [^3H]myo-inositol (American Radiolabeled Chemicals, St. Louis, Mo., USA).
Incubations (V1a and V1b). All assays were in triplicate except for basal and 10 nM AVP (both n=6). AVP ((arginine vasopressin), Peninsula Labs, Belmont, Calif., USA (#8103)) was dissolved in 0.1N acetic acid. Test agents were dissolved in DMSO and diluted in DMSO to 200 times the final test concentration. […] The order of incubations was randomized. Incubations were initiated by removing the prelabeling medium, washing the monolayer once with 1 mL of 0.9% NaCl, and transferring the contents of the assay tubes to corresponding wells. The plates were incubated for 1 hour at 37° C. Incubations were terminated by removing the incubation medium and adding 500 μL of ice cold 5% (w/v) trichloroacetic acid and allowing the wells to stand for 15 min.
Measurement of [^3H]inositol phosphates (V1a and V1b). BioRad Poly-Prep Econo-Columns were packed with 0.3 mL of AG 1×−8 100-200 formate form resin. Resin was mixed 1:1 with water and 0.6 mL added to each column. Columns were then washed with 10 mL water. Scintillation vials (20 mL) were placed under each column. For each well, the contents were transferred to a minicolumn, after which the well was washed with 0.5 mL distilled water, which was also added to the minicolumn. The columns were then washed twice with 5 mL of 5 mM myo-inositol to elute free inositol. Aliquots (1 mL) were transferred to 20 mL scintillation vials and 10 mL of Beckman Ready Protein Plus added. After the myo-inositol wash was complete, empty scintillation vials were placed under the columns, and [^3H]inositol phosphates were eluted with three additions of 1 mL 0.5 M ammonium formate containing 0.1 N formic acid. Elution conditions were optimized to recover inositol mono-, bis-, and trisphosphates, without eluting the more metabolically inert tetrakis-, pentakis-, and hexakis-phosphates. To each sample was added 10 mL of a high salt capacity scintillation fluid such as Tru-Count High Salt Capacity or Packard Hionic-Fluor. Inositol lipids were measured by adding 1 mL of 2% sodium dodecyl sulfate (SDS) to each well, allowing the wells to stand for at least 30 min., and transferring the solution to 20 mL scintillation vials, to which 10 mL Beckman Ready Protein Plus scintillation fluid was then added. Samples were counted in a Beckman LS 3801 liquid scintillation counter for 10 min. Total inositol incorporation for each well was calculated as the sum of free inositol, inositol phosphates, and inositol lipids.
Data analysis (V1a and V1b): concentration-inhibition experiments. Concentration-response curves for AVP and concentration-inhibition curves for test agents versus 10 nM AVP were analyzed by nonlinear least-squares curve-fitting to a 4-parameter logistic function. Parameters for basal and maximal inositol phosphates, EC50 or IC50, and Hill coefficient were varied to achieve the best fit. The curve-fitting was weighted under the assumption that the standard deviation was proportional to dpm of radioactivity. Full concentration-response curves for AVP were run in each experiment. […]

[2] = target: V2 (Homo sapiens, UniProt P30518); assay: V2 receptor inhibition data (Ki); type: binding; settings: selectivity table
[3] = tested on: adult male Long Evans rats; assay: Light:Dark Shuttle Box; type: in vivo, rat
Protocol: Anxiolytic Effect in the Light:Dark Shuttle Box. The light:dark shuttle box is a standard and well characterized assay for anxiolytic effects of a test compound. Rats naturally avoid the light side of the box because it is stressful. Increased time on the light side by the treatment group compared to control reflects an anxiolytic effect (Bourin and Hascoet, 2003). Adult male Long Evans rats were administered AVN251 (0.1-2 mg/kg) by oral gavage 90 min prior to testing in a light: dark shuttle box.

[4] = target: T1, human V1a receptor; assay: Human vasopressin V1a receptor binding assay (3H-AVP competition, hV1a cell line)
Protocol: Human vasopression V1a receptor binding assay. A cell line expressing the human V1a receptor in CHO cells (henceforth referred to as the hV1a cell line) was obtained from Dr. Michael Brownstein, NIMH, Bethesda, Md., USA. The hV1a cDNA sequence is described by Thibonnier et al., Journal of Biological Chemistry, 269, 3304-3310 (1994), and the expression method was the same as described by Morel et al. (1992). The hV1a cell line was grown in alpha-MEM with 10% fetal bovine serum and 250 ug/ml G418 (Gibco, Grand Island, N.Y., USA). For competitive binding assay, hV1a cells were plated into 6-well culture plate at 1:10 dilution from a confluency flask, and maintained in culture for at least two days. Culture medium was then removed, cells were washed with 2 ml binding buffer (25 mM Hepes, 0.25% BSA, 1×DMEM, PH=7.0). To each well, 990 μl binding buffer containing 1 nM 3H-AVP was added, and followed by 10 μl series diluted Example compounds dissolved in DMSO. […] 100 nM cold AVP (Sigma) was used to assess non-specific binding. Cells were incubated for 45 minutes at 37° C., assay mixture was removed and each well was washed three times with PBS (pH=7.4). 1 ml 2% SDS was added per well and plates were let sit for 30 minutes. The whole content in a well was transferred to a scintillation vial. Each well was rinsed with 0.5 ml PBS which was then added to the corresponding vial. Scintillation fluid (Ecoscint, National Diagnostics, Atlanta, Ga.) was then added at 3 ml per vial. Samples were counted in a liquid scintillation counter (Beckman LS3801). IC50 values were calculated by Prism Curve fitting software.
All of the alkanedioic esters and amides exemplified in the foregoing examples dissolved in DMSO were tested in this assay. Binding curves were generated according to methods described by Thibonnier et al. (1994). [^3H]-AVP was added to the hV1a cell cultures followed by 10-fold dilutions of each test compound.

T1 sequence (P37288 whole entry): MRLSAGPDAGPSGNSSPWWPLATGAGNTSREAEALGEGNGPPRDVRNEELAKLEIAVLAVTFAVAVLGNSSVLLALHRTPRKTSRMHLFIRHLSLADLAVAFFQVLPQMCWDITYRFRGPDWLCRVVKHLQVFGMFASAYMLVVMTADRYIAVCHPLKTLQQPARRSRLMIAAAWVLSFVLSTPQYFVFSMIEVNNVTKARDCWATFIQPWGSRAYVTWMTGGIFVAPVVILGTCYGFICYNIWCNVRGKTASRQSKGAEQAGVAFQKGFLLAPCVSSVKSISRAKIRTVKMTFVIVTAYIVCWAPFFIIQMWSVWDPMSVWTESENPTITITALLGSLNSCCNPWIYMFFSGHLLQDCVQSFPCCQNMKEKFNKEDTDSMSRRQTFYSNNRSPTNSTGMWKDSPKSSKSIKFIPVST
Chain of V2 (P30518 whole entry): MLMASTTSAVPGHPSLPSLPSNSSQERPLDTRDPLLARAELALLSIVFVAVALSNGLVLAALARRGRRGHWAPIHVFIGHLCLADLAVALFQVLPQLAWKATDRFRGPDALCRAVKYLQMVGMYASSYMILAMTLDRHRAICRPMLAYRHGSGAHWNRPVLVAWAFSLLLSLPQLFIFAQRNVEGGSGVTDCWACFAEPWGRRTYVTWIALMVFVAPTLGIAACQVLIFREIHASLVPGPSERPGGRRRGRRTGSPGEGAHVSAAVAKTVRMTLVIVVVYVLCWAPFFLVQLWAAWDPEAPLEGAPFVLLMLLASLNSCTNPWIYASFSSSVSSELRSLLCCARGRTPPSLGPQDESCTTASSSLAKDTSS

`CN(Cc1cccc(C(F)(F)F)c1)C(=O)[C@@H](CC(=O)N1CCC(N2CCCCC2)CC1)N1C(=O)[C@@H](N2C(=O)OC[C@@H]2c2ccccc2)[C@H]1C=Cc1ccccc1` [Example 225, 2(R)-[[4-(Piperidinyl)piperidinyl]carbonylmethyl]-2-[3(S)-(4(S)-phenyloxazolidin-2-on-3-yl)-4(R)-(2-styryl)azetidin-2-on-1-yl]acetic acid N-methyl-N-(3-trifluoromethylbenzyl)amide] was tested, and the Ki ([1]; Cheng-Prusoff from IC50, hV1a cells, read-out: Ki, suppression of the action of AVP (inositol phosphates)) was 0.05 nM, the IC50 ([1]; versus 10 nM AVP, hV1a cells, read-out: IC50, suppression of the action of AVP (inositol phosphates)) was 2.68 nM and the Ki [2] was > 1000 nM. The anxiety vs. vehicle ([3]; 0.1-2 mg/kg oral gavage 90 min prior to testing) was “dose dependent decrease in anxiety”, the “light-dark entries (FIG. 2C)” value ([3]; 1 or 2 mg/kg oral gavage) was “more light-dark entries” and the “time in the dark (FIG. 2B)” value ([3]; 1 or 2 mg/kg oral gavage) was “less time in the dark”. For the same compound, the “time in the light (FIG. 2A)” value ([3]; 1 or 2 mg/kg oral gavage) was “significantly more time in the light”, the IC50 ([4]; CHO cells expressing human V1a, 1 nM 3H-AVP, read-out: V1a Binding Affinity IC50) was 1.08 nM and the Ki ([4]; CHO cells expressing human V1a, 1 nM 3H-AVP, read-out: V1a Ki) was 0.66 nM. The IC50 ([4]; read-out: IC50, dose-dependent competitive binding curve, hV1a cell line, [3H]-AVP) was 1.86 to 2.13 nM, the Ki ([4]; read-out: Ki, dose-dependent competitive binding curve, hV1a cell line, [3H]-AVP) was 1.14 to 1.3 nM and the Ki ([4]; selectivity table, read-out: inhibition data (Ki, nM), Receptor V1a) was 0.66 nM.
